The source of these data is patent publication US9561231B2 (AbbVie Inc., priority 2012, dated 2017).

Some results are limits rather than exact numbers.

In assay [1] the target is T1, first (BD1: amino acids K57-E168) bromodomain of BRD4 (Homo sapiens, UniProt O60885).
T1 construct: His-tagged first (BD1: amino acids K57-E168)
Kind of assay: TR-FRET bromodomain binding assay, BRD4 BD1. Conditions: TR-FRET assay protocol (A-G, compound concentration range); Ki calculated from IC50, probe Kd and probe concentration; read-out: TR-FRET Binding Ki: BRD4 (BDI_K57-E168). In a few lines: (§1)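 His-tagged BRD4 BD1 (K57-E168) or BD2 ([…]) displacing an Alexa647-labelled BET-inhibitor probe in 20 mM sodium phosphate pH 6.0, 50 mM NaCl, 1 mM EDTA, 0.01% Triton X-100, 1 mM DTT.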

Assay [2] relates to breast cancer cell line MX-1. In words: MX-1 cell line proliferation assay (3-day). It counts as cell-based. Conditions: Homo sapiens, MX1; MX-1 cells, 72 h incubation, Cell Titer Glo; read-out: Cellular proliferation: EC50. In a few lines: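 MX-1 cells in RPMI/10% FBS, plated 5000/well overnight, then exposed to compound at final 3 to 0.0001 μM (3-fold series) for 3 days at 37° C. Cell Titer Glo luminescence normalized to DMSO-treated cells; EC50 from sigmoidal curve fit.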
(In general: Cellular ATP, detected with luciferase, serves as a proxy for viable cell number.)

In assay [3] the target is T2, second (BD2: amino acids E352-E168) bromodomain of BRD4 (Homo sapiens, UniProt O60885).
T2 construct: protocol
Kind of assay: TR-FRET bromodomain binding assay, BRD4 BD2. Conditions: TR-FRET assay protocol (A-G, compound concentration range); Ki calculated from IC50, probe Kd and probe concentration; read-out: TR-FRET Binding Ki: BRD4 (BDII_E352-M457). In a few lines:
as §1

Usually Ki stands for the equilibrium dissociation constant of an inhibitor or competing ligand from its target. As to `CCCc1cc(=O)n(C)cc1-c1cc(NS(=O)(=O)CC)ccc1Oc1ccc(F)cc1F` [Example 359, N-[4-(2,4-difluorophenoxy)-3-(1-methyl-6-oxo-4-propyl-1,6-dihydropyridin-3-yl)phenyl]ethanesulfonamide], the Ki in assay [1] was 0.0126 µM; in assay [3], 0.0051 µM. For the same compound, the EC50 in assay [2] worked out at 0.112 µM.
As to `Cn1cc(-c2cc(NS(C)(=O)=O)ccc2Oc2ccc(C(F)(F)F)cc2)ccc1=O` [Example 231, N-{3-(1-methyl-6-oxo-1,6-dihydropyridin-3-yl)-4-[4-(trifluoromethyl)phenoxy]phenyl}methanesulfonamide], the Ki in assay [1] was 0.0446 µM; in assay [3], 0.539 µM. Also, the EC50 in assay [2] was determined as 0.911 µM.
On the same counts, the results for `CCOc1cc(=O)n(C)cc1-c1cc(NC(=O)c2ccc(COc3ccccc3)cc2)ccc1Oc1ccc(F)cc1F` [Example 297, N-[4-(2,4-difluorophenoxy)-3-(4-ethoxy-1-methyl-6-oxo-1,6-dihydropyridin-3-yl)phenyl]-4-(phenoxymethyl)benzamide] are over 0.238 µM, 0.256 µM and 2.42 µM.
On the same counts, the results for `Cn1cc(-c2cc(NS(C)(=O)=O)ccc2Oc2cccnc2)ccc1=O` [Example 234, N-[3-(1-methyl-6-oxo-1,6-dihydropyridin-3-yl)-4-(pyridin-3-yloxy)phenyl]methanesulfonamide] are 0.0213 µM, 0.216 µM and 1.29 µM.
Consider `Cn1cc(-c2cc(NS(C)(=O)=O)ccc2Oc2ccc(F)cc2F)c(-c2ccc(N3CCOCC3)cc2)cc1=O` [Example 274, N-[4-(2,4-difluorophenoxy)-3-{1-methyl-4-[4-(morpholin-4-yl)phenyl]-6-oxo-1,6-dihydropyridin-3-yl]phenyl}methanesulfonamide], for which the Ki in assay [1] was 0.0245 µM; in assay [3] it was 0.0055 µM. The EC50 in assay [2] is 0.0774 µM.
Take `CC(=O)NCc1ccc(Oc2ccccc2)c(-c2ccc(=O)n(C)n2)c1` [Example 16, N-[3-(1-methyl-6-oxo-1,6-dihydropyridazin-3-yl)-4-phenoxybenzyl]acetamide]: the Ki in assay [1] was 1.11 µM; in assay [3] it was 8.42 µM. The EC50 in assay [2] stood at 5.9 µM.
Regarding `COc1ccccc1Oc1ccc(NS(C)(=O)=O)cc1-c1ccc(=O)n(C)c1` [Example 238, N-[4-(2-methoxyphenoxy)-3-(1-methyl-6-oxo-1,6-dihydropyridin-3-yl)phenyl]methanesulfonamide], the Ki was 0.0292 µM in assay [1] and 0.0499 µM in assay [3]. The EC50 in assay [2] stood at 0.643 µM.
As for `CCOc1cc(=O)n(C)cc1-c1cc(NS(=O)(=O)c2cccc3ccccc23)ccc1Oc1ccc(F)cc1F` [Example 343, N-[4-(2,4-difluorophenoxy)-3-(4-ethoxy-1-methyl-6-oxo-1,6-dihydropyridin-3-yl)phenyl]naphthalene-1-sulfonamide], the Ki in assay [1] was 0.0698 µM; in assay [3], 0.0127 µM. In assay [2], the EC50 came to 0.504 µM.
`Cn1cc(-c2cc(NS(C)(=O)=O)ccc2Oc2cccc(C(F)(F)F)c2)ccc1=O` [Example 244, N-{3-(1-methyl-6-oxo-1,6-dihydropyridin-3-yl)-4-[3-(trifluoromethyl)phenoxy]phenyl}methanesulfonamide]: the results for the Ki in assay [1] and in assay [3] were 0.116 µM and 0.282 µM, respectively. Moreover, the EC50 in assay [2] is 0.481 µM.
Take `Cn1cc(-c2cc(NC(=O)c3ccc[nH]3)ccc2Oc2ccccc2)ccc1=O` [Example 251, N-[3-(1-methyl-6-oxo-1,6-dihydropyridin-3-yl)-4-phenoxyphenyl]-1H-pyrrole-2-carboxamide]: the Ki in assay [1] was 0.197 µM; in assay [3], 0.26 µM. For the same compound, the EC50 in assay [2] amounted to 1.1 µM.
As to `CN1CCN(Cc2cccc(-c3cc(=O)n(C)nc3-c3ccccc3Oc3ccccc3)c2)CC1` [Example 60, 2-methyl-5-{3-[(4-methylpiperazin-1-yl)methyl]phenyl}-6-(2-phenoxyphenyl)pyridazin-3(2H)-one], the Ki in assay [1] was 0.17 µM; in assay [3], 0.413 µM. The EC50 in assay [2] was over 3 µM.
Regarding `Cn1cc(-c2cc(NC(=O)CN)ccc2Oc2ccccc2)ccc1=O` [Example 253, N-[3-(1-methyl-6-oxo-1,6-dihydropyridin-3-yl)-4-phenoxyphenyl]glycinamide], the Ki in assay [1] was 0.942 µM; in assay [3] it was 3.29 µM. Also, the EC50 in assay [2] was over 3 µM.
In the case of `CCS(=O)(=O)Nc1ccc(Oc2ccc(F)cc2F)c(-c2cn(C)c(=O)cc2C(F)(F)F)c1` [Example 268, N-{4-(2,4-difluorophenoxy)-3-[1-methyl-6-oxo-4-(trifluoromethyl)-1,6-dihydropyridin-3-yl]phenyl}ethanesulfonamide], the inhibition constant Ki in assay [1] is 0.483 µM; in assay [3], 0.0951 µM. Moreover, the EC50 in assay [2] is 0.579 µM.
With `CCS(=O)(=O)Nc1ccc(Oc2ccc(F)cc2F)c(-c2cc(Cl)c(=O)n(C)c2)c1` [Example 283, N-[3-(5-chloro-1-methyl-6-oxo-1,6-dihydropyridin-3-yl)-4-(2,4-difluorophenoxy)phenyl]ethanesulfonamide], the Ki in assay [1] is 0.0174 µM; in assay [3], 0.0394 µM. In assay [2], the EC50 was found to be 0.194 µM.
As to `CC(=O)Nc1ccc(Oc2ccc(F)cc2F)c(-c2c[nH]c(=O)c(C)c2)c1` [Example 265, N-[4-(2,4-difluorophenoxy)-3-(5-methyl-6-oxo-1,6-dihydropyridin-3-yl)phenyl]acetamide], the Ki is 0.132 µM in assay [1] and 0.172 µM in assay [3]. Moreover, the EC50 in assay [2] was found to be 1.72 µM.
Turning to `CN1CCN(Cc2ccc(-c3cc(=O)n(C)nc3-c3ccccc3Oc3ccccc3)cc2)CC1` [Example 61, 2-methyl-5-{4-[(4-methylpiperazin-1-yl)methyl]phenyl}-6-(2-phenoxyphenyl)pyridazin-3(2H)-one], the Ki in assay [1] was 0.0331 µM; in assay [3], 0.0489 µM. Also, the EC50 in assay [2] worked out at 0.911 µM.
Regarding `COc1cc(=O)n(C)nc1-c1cc(NC(C)=O)ccc1Oc1ccccc1` [Example 21, N-[3-(4-methoxy-1-methyl-6-oxo-1,6-dihydropyridazin-3-yl)-4-phenoxyphenyl]acetamide], the results for the Ki in assay [1] and in assay [3] were 0.147 µM and 0.103 µM, respectively. Besides, the EC50 in assay [2] stood at 1.34 µM.
For the compound `Cc1ccc(S(=O)(=O)Nc2ccc(Oc3ccccc3)c(-c3ccc(=O)n(C)n3)c2)cc1` [Example 11, 4-methyl-N-[3-(1-methyl-6-oxo-1,6-dihydropyridazin-3-yl)-4-phenoxyphenyl]benzenesulfonamide], the results for the Ki in assay [1] and in assay [3] were 4.04 µM and 4.37 µM, respectively. Further, the EC50 in assay [2] was determined as 9.46 µM.
On the same counts, the results for `Cn1cc(-c2cc(NS(=O)(=O)c3c[nH]cn3)ccc2Oc2ccccc2)ccc1=O` [Example 228, N-[3-(1-methyl-6-oxo-1,6-dihydropyridin-3-yl)-4-phenoxyphenyl]-1H-imidazole-4-sulfonamide] are 0.142 µM, 0.154 µM and over 3 µM.
Take `Cn1cc(-c2cc(NC(=O)CNC(=O)OC(C)(C)C)ccc2Oc2ccccc2)ccc1=O` [Example 252, tert-butyl (2-{[3-(1-methyl-6-oxo-1,6-dihydropyridin-3-yl)-4-phenoxyphenyl]amino}-2-oxoethyl)carbamate]: the values for the Ki in assay [1] and in assay [3] were 0.297 µM and 0.695 µM, respectively. In assay [2], the EC50 was over 3 µM.
On the same counts, the results for `Cn1nc(-c2ccccc2OCc2ccccc2)ccc1=O` [Example 2, 6-[2-(benzyloxy)phenyl]-2-methylpyridazin-3(2H)-one] are 11.7 µM, 2.86 µM and 13.5 µM.
With `Cn1cc(-c2cc(NS(C)(=O)=O)ccc2Oc2ccc(F)cc2F)c(C(F)(F)F)cc1=O` [Example 5, N-{4-(2,4-difluorophenoxy)-3-[1-methyl-6-oxo-4-(trifluoromethyl)-1,6-dihydropyridin-3-yl]phenyl}methanesulfonamide], the Ki in assay [1] was 0.922 µM; in assay [3], 0.688 µM. Also, the EC50 in assay [2] was over 3 µM.
Turning to `CC1CCN(Cc2ccc(-c3cc(=O)n(C)nc3-c3ccccc3Oc3ccccc3)cc2)CC1` [Example 68, 2-methyl-5-{4-[(4-methylpiperidin-1-yl)methyl]phenyl}-6-(2-phenoxyphenyl)pyridazin-3(2H)-one], the values for the Ki in assay [1] and in assay [3] were 0.0631 µM and 0.0719 µM, respectively. For the same compound, the EC50 in assay [2] worked out at 1.11 µM.
Turning to `COc1cc(-c2cc(=O)n(C)nc2-c2ccccc2Oc2ccccc2)ccn1` [Example 57, 5-(2-methoxypyridin-4-yl)-2-methyl-6-(2-phenoxyphenyl)pyridazin-3(2H)-one], the values for the Ki in assay [1] and in assay [3] were 0.598 µM and 0.25 µM, respectively. Besides, the EC50 in assay [2] amounted to 1.86 µM.
`CCS(=O)(=O)Nc1ccc(Oc2ccc(F)cc2F)c(-c2cn(C)c(=O)cc2NC2CC2)c1` [Example 362, N-{3-[4-(cyclopropylamino)-1-methyl-6-oxo-1,6-dihydropyridin-3-yl]-4-(2,4-difluorophenoxy)phenyl}ethanesulfonamide]: the results for the Ki in assay [1] and in assay [3] were 0.00581 µM and 0.00276 µM, respectively. For the same compound, the EC50 in assay [2] came out at 0.0336 µM.
